Source: patent publication US20260209152A1, “Substituted Hydroxystilbene Compounds and Derivatives, Synthesis and Uses Thereof” (Kynan Duke IP, LLC, priority 2019, published 2026)
Like-named read-outs stand apart in the source and are kept apart here.

Key:
Kidney ACHN = assay: CellTiter Glo cell viability assay; assay type: cell-based; settings: Homo sapiens; ACHN/CRL-1611; 11 dilutions 3-0.00001 μM
GBM patient sample BNB18 = assay: Ex vivo GBM 3D spheroid drug response (CellTiter-Glo 3D); assay type: cell-based, human; settings: 3D spheroids, 4 days post drug treatment
Text: (§1) This project involves an ex vivo drug response screen for 3 ROKiT Pharma test agents and Temozolomide in 3 previously dissociated and cryopreserved GBM samples.
(§2) • 2.1 Three previously processed GBM patient samples were chosen to be used in this study.

GBM patient sample BNB04 = assay: as above; assay type: cell-based, human; settings: Homo sapiens, 96 h, 3D spheroids; 4 days post drug treatment
Text: as §1, §2

GBM patient sample BNA99 = assay: as above; assay type: cell-based, human; settings: 3D spheroids, 4 days post drug treatment
Text: as §1, §2

Pancreatic CAPAN-1 = assay: CellTiter Glo cell viability assay; assay type: cell-based; settings: Homo sapiens; Capan-1/HTB-79; 11 dilutions 3-0.00001 μM
[1] = tested on: primary human keratinocytes; assay: Cell viability in keratinocyte CCL2 assay (assay number 1243); assay type: cell-based; settings: Homo sapiens
Text: (§3) • 1. Determination of inhibition of CCL2 release from IL-4, IL-13, IL-22 and IFN-γ-stimulated primary human keratinocytes [assay number 1280] and determination of the effect on cell viability [assay number 1243]. • 2. Determination of inhibition of IL-8 release from IL-17A and TNFα-induced primary human keratinocytes [assay number 1250] and determination of the effect on cell viability [assay number 1244]. • 3. Determination of inhibition of IL-17A secretion from human PBMC stimulated with antiCD3/antiCD28-coated beads [assay number 1321] and determination of the effect on cell viability [assay number 1322]. • 4. Determination of inhibition of IL-4 and IL-2 secretion from human CD4-positive T-cells stimulated with antiCD2/antiCD3/antiCD28-coated beads [assay number 1297, 1298] and determination of the effect on cell viability [assay number 1299].

[2] = as above; assay type: cell-based, human; settings: human
Text: as §3

Rhabomyosarcoma A-204 = assay: CellTiter Glo cell viability assay; assay type: cell-based; settings: Homo sapiens
Method: (§4) 1.7*10^3 cells/well were seeded in quadruplicates in 96-well plate after plating. Drugs were added at 5 μM and 2-fold dilutions over 18 concentrations (0.000038146-5 […] range) to generate a dose-response curve. Cell growth was assessed on day 1, 3 and 5 after drug treatments using the CellTiter Glo Luminescence Cell Viability Assay (Promega) according to manufacturer's protocol. Thermo Scientific Varioskan LUX Multimode Microplate instrument was used for plate reading. Data are expressed as mean luminescence (arbitrary units) ±S.D.
(§5) Cell Viability Assays were employed to determine the concentration of Compound 1 (KYN-001) and analogues where the response is reduced by half. For each treatment of cancer cells, 1, 2, 5, 10 and 20 μM solutions of compounds were applied. GraphPad Prism 7 software was used to fit dose response curves. Relative Luminescence Units were plotted against the log values of the doses used and the nonlinear regression model was used for data analysis.
(§6) The protocol for cell proliferation was optimized for Compound 8 (KYN-119) to enable a more accurate assessment of its low IC50 value. In this protocol, 18 dosages (2 fold dilutions ranging from 0.000038146 to 5 μM) were applied to cells seeded in 96-well plates, and Luminescence was measured after 1, 3 and 5 days upon treatments.

Kidney 769-P = assay: CellTiter Glo cell viability assay; assay type: cell-based; settings: Homo sapiens
Method: as §4, §5, §6

Bladder RT4 = assay: CellTiter Glo cell viability assay; assay type: cell-based; settings: Homo sapiens
Method: as §4, §5, §6

Colon SW_480 = assay: CellTiter Glo cell viability assay; assay type: cell-based, human; settings: for IC50: Homo sapiens
[3] = tested on: Colon cancer SW620/CCL-227; assay: CellTiter Glo cell viability assay; assay type: cell-based; settings: Homo sapiens, SW-620, 11 dilutions 3-0.00001 μM
Method: as §4, §5
(§7) IC50 (μM) values correspond to log(inhibitor) vs. response (four parameters) and dose-response graphs were generated using GraphPad Prism8.

[4] = tested on: Neuroblastoma SK-N-FI/CRL-2142; assay: CellTiter Glo cell viability assay; assay type: cell-based; settings: Homo sapiens, 11 dilutions 3-0.00001 μM
Method: as §4, §5, §7

[5] = tested on: Colon cancer HT-29/HTB-38; assay: CellTiter Glo cell viability assay; assay type: cell-based; settings: Homo sapiens, 11 dilutions 3-0.00001 μM
Method: as §4, §5, §7

[6] = tested on: Muscle Ewing's Sarcoma A-673/CRL-1598; assay: CellTiter Glo cell viability assay; assay type: cell-based; settings: Homo sapiens, A673, 11 dilutions 3-0.00001 μM
Method: as §4, §5, §7

[7] = tested on: Osteosarcoma MG-63/CRL-1427; assay: CellTiter Glo cell viability assay; assay type: cell-based; settings: Homo sapiens, 11 dilutions 3-0.00001 μM
Method: as §4, §5, §7

[8] = tested on: Neuroblastoma BE(2)-C/CRL-2268; assay: CellTiter Glo cell viability assay; assay type: cell-based; settings: Homo sapiens, 11 dilutions 3-0.00001 μM
Method: as §4, §5, §7

[9] = tested on: Neuroblastoma SK-N-DZ/CRL-2149; assay: CellTiter Glo cell viability assay; assay type: cell-based; settings: Homo sapiens, 11 dilutions 3-0.00001 μM
Method: as §4, §5, §7

[10] = tested on: Neuroblastoma CHP-212/CRL-2273; assay: CellTiter Glo cell viability assay; assay type: cell-based; settings: Homo sapiens, 11 dilutions 3-0.00001 μM
Method: as §4, §5, §7

[11] = tested on: Liver cancer SNU-449/CRL-2234; assay: CellTiter Glo cell viability assay; assay type: cell-based; settings: Homo sapiens, 11 dilutions 3-0.00001 μM
Method: as §4, §5, §7

[12] = Keratinocyte, cell viability in CCL2 assay, read-out: Abs EC50: Viab (1243)
[13] = keratinocyte CCL2 assay, read-out: EC50, cell viability
[14] = keratinocyte CCL2 assay, read-out: maximum reduction of cell viability
[15] = A204, A-204/HTB-82, 11 dilutions 3-0.00001 μM, read-out: IC50
[16] = 769-P/CRL-1933, 11 dilutions 3-0.00001 μM, read-out: IC50
[17] = RT4/HTB-2, 11 dilutions 3-0.00001 μM, read-out: IC50
[18] = SW480/CCL-228, 11 dilutions 3-0.00001 μM, read-out: IC50
[19] = maximum reduction of cell viability in CCL2 assay, read-out: Max Eff.: Viab (1243)
[20] = SW480, 72 h, 3 Days of treatment, 18 2-fold dilutions 5-0.00003 μM, read-out: Average IC50

| SMILES | IC50 (Kidney ACHN) | IC50 (GBM patient sample BNB18; Homo sapiens, 96 h) | IC50 (GBM patient sample BNB04) | IC50 (GBM patient sample BNA99; Homo sapiens, 96 h) | IC50 (Pancreatic CAPAN-1) | EC50 [1, 12] | IC50 (Rhabomyosarcoma A-204; [15]) | IC50 (Kidney 769-P; [16]) | IC50 (Bladder RT4; [17]) | IC50 (Colon SW_480; [18]) | IC50 [3] | IC50 [4] | IC50 [5] | IC50 [6] | IC50 [7] | IC50 [8] | IC50 [9] | IC50 [10] | IC50 [11] | cytotoxicity [2, 19] | other results |
| --- | --- | --- | --- | --- | --- | --- | --- | --- | --- | --- | --- | --- | --- | --- | --- | --- | --- | --- | --- | --- | --- |
| COc1cc(/C=C/c2cc(O)cc(OC)c2CC=C(C)C)ccc1NC=O [Compound 27, (E)-N-(4-(5-hydroxy-3-methoxy-2-(3-methylbut-2-en-1-yl)styryl)-2-methoxyphenyl)formamide] | 26.7 nM | 630 nM | 4310 nM | 8860 nM | 792 nM | 41 nM | 52.4 nM | 110 nM | 453 nM | 89.6 nM | 31.7 nM | 15.7 nM | 432 nM | 229 nM | 82.5 nM | 13.6 nM | 32.6 nM | 5.7 nM | 15.1 nM |  | IC50 (GBM patient sample BNB18): 634 nM; IC50 (GBM patient sample BNA99): 8870 nM; EC50 [1, 13]: 41 nM; cytotoxicity [2, 14]: 67% |
| CCOc1cc(O)cc(/C=C/c2ccc(NC=O)c(OC)c2)c1CC=C(C)C [Compound 28, (E)-N-(4-(3-Ethoxy-5-hydroxy-2-(3-methylbut-2-en-1-yl)styryl)-2-methoxyphenyl)formamide] | 18.8 nM |  |  |  | 735 nM | 124 nM | 25.3 nM | 40.1 nM | 463 nM | 30 nM | 18 nM | 9.7 nM | 325 nM | 112 nM | 4.8 nM | 11.2 nM | 16.4 nM | 3 nM | 10.2 nM |  | EC50 [1, 13]: 124 nM; cytotoxicity [2, 14]: 68% |
| CCOc1cc(O)cc(/C=C/c2ccc(O)c(OC)c2)c1CC=C(C)C [Compound 8, (E)-3-Ethoxy-5-(4-hydroxy-3-methoxystyryl)-4-(3-methylbut-2-en-1-yl)phenol] | 75.7 nM |  |  |  | 2320 nM | 235 nM | 67.8 nM | 109 nM | 968 nM | 109 nM | 35.5 nM | 26.6 nM | 939 nM | 157 nM | 18.2 nM | 25.9 nM | 50.1 nM | 9.8 nM | 32.5 nM | 99% | IC50 (Rhabomyosarcoma A-204; A204, 72 h, 3 Days of treatment, 18 2-fold dilutions 5-0.00003 μM, read-out: Average IC50): 30.7 nM; IC50 (Kidney 769-P; 769-P, 72 h, 3 Days of treatment, 18 2-fold dilutions 5-0.00003 μM, read-out: Average IC50): 33.7 nM; IC50 (Bladder RT4; 72 h, 3 Days of treatment, 18 2-fold dilutions 5-0.00003 μM, read-out: Average IC50): 1670 nM; IC50 (Colon SW_480; [20]): 17.9 nM; Fold IC50 (Colon SW_480; IC50 of 1 [KYN-001] vs 8 [KYN-119], 3 Days): 10 |
| CCOc1cc(O)cc(/C=C/c2ccc(O)c(O)c2)c1CC=C(C)C [Compound 20, (E)-4-(3-Ethoxy-5-hydroxy-2-(3-methylbut-2-en-1-yl)styryl)benzene-1,2-diol] | 83.4 nM | 4560 nM | 23700 nM | 19100 nM | 2240 nM | 442 nM | 131 nM | 174 nM | 2010 nM | 158 nM | 103 nM | 48.5 nM | 1990 nM | 312 nM | 31.3 nM | 54.8 nM | 140 nM | 26.1 nM | 64 nM | 61% |  |
| COc1cc(/C=C/c2cc(O)cc(OC)c2CC=C(C)C)ccc1O [Compound 1, (E)-3-(4-hydroxy-3-methoxystyryl)-5-methoxy-4-(3-methylbut-2-en-1-yl)phenol] | 241 nM | 1330 nM | 10900 nM | 15000 nM | 2670 nM | 202 nM | 199 nM | 363 nM | 1380 nM | 225 nM | 121 nM | 116 nM | 1560 nM | 471 nM | 44.1 nM | 67.1 nM | 132 nM | 28.1 nM | 81.8 nM | 77% | IC50 (Colon SW_480; [20]): 179 nM; IC50 (Colon SW_480; SW480, 72 h, Day 3 upon drug treatment, 10 dosages 0.0001-20 μM, read-out: IC50): 298 nM |
